Assay results taken from paper PMC6943742, “Peptide/Peptoid Hybrid Oligomers: The Influence of Hydrophobicity and Relative Side-Chain Length on Antibacterial Activity and Cell Selectivity” (Molecules, 2019).
≈ marks a conversion by molar mass, not a printed value. Non-standard residues stand in square brackets, D forms with d. Residues, ends and D or L forms follow the SMILES beside them. Gly(NCH2CH2Ph) = O=C(O)CNCCc1ccccc1; Gly(N-2-aminoethyl) = NCCNCC(=O)O; hPhe = N[C@@H](CCc1ccccc1)C(=O)O; Gly(N(CH2)3NH2) = NCCCNCC(=O)O; Orn = NCCC[C@H](N)C(=O)O; Nlys = NCCCCNCC(=O)O

Experiments:
[1] = Relative hydrophobicity by RP-HPLC (% MeCN at peak elution); format: physicochemical; conditions: RP-HPLC gradient 0 → 60% B during 10 min; % MeCN at peak elution calculated from retention time
Procedure: The relative hydrophobicity of each peptidomimetic was measured by reverse-phase high-performance liquid chromatography (RP-HPLC). Typically, the RP-HPLC retention time (or percentage acetonitrile at peak elution) constitutes the preferred measure that allows for comparison of relative hydrophobicity, while log P values of polycationic peptides or peptidomimetics normally are considered unsuitable due to the extreme hydrophilic nature of such compounds [11, 45, 57, 58, 59, 60]. […] For both subgroups III (with cationic amino acid residues and the peptoid analogue of Phe, NPhe, i.e., 9–12) and IV (with cationic amino acid residues and the peptoid analogue of hPhe, NhPhe, i.e., 13–16) only minor differences in hydrophobicity were seen. These observations infer that, when the cationic residues are of a peptoid nature, the side-chain length of these has a […] influence on the hydrophobicity. […] Thus, introduction of additional six methylene groups results, as expected, in increased hydrophobicity.
Starting materials and solvents were purchased from commercial suppliers (Iris Biotech, Markredwitz, Germany; Fluorochem, Hadfield, United Kingdom; and Merck, Darmstadt, Germany) and used without further purification. Water used for analytical and preparative high-performance liquid chromatography (HPLC) was filtered through a 0.22-μm Millipore membrane filter. Purity and retention time of each peptidomimetic were determined by analytical UHPLC by using a Phenomenex Luna C18(2) HST column (100 mm × 3 mm; particle size: 2.5 μm; pore size: 100 Å) on a Shimadzu Prominence and Shimadzu Nexera system using an aqueous acetonitrile (MeCN) gradient with 0.1% trifluoroacetic acid (TFA) added (eluent A: 5:95 MeCN–H2O + 0.1% TFA, eluent B: 95:5 MeCN–H2O + 0.1% TFA); a flow rate of 0.5 mL/min was used. For elution of peptidomimetics, a linear gradient of 0% to 60% B during 10 min was used with UV detection at λ = 220 nm. […] For each peptidomimetic, the percentage of MeCN at peak elution was calculated from the retention time by using the following formula:(1) %MeCN = 0.95 (0.6Rt/10 min.) + 0.05 (1−0.6Rt/10 min.).

[2] = system: HepG2 cell line ATCC HB-8065; assay: in vitro; format: cell-based; conditions: 48 h
Procedure: Side effects affecting cell viability were estimated on the HepG2 cell line ATCC HB-8065. In brief, HepG2 cells were seeded in flat-bottomed 96-well plates at a concentration of 5000 cells per well. At 80−90% confluency, the cells were incubated for 24 h in a humidified incubator (5% CO2, 37 °C). The medium was removed, and the cells were incubated for 48 h in a humidified incubator (5% CO2, 37 °C) with compounds in two-fold serial dilutions. An MTT assay was then performed as previously described. In brief, after incubation with the test compounds, the culture medium was removed and fresh medium with 0.2 mg/mL MTT was added in each well of the plate. After incubation (3 h, 37 °C, 5% CO2), the medium with MTT was removed, and 200 μL dimethyl sulfoxide were added at once to each sample. Absorbance of MTT was measured using spectrophotometer TECAN Infinite M1000 at 540 nm. The relative viability was calculated by using the formula: ODtreated cells × 100/ODcontrol cells. The IC50 values are calculated by using the program Graph Pad Prism® 5.0. For all compounds, the test range was 10–1280 μg/mL.

[3] = system: P. aeruginosa PAO1; format: cell-based; conditions: PAO1, 20 h
Procedure: (§1) MIC values were evaluated by using the modified Hancock lab protocol in non-binding polystyrene microtitre plates, with bacterial suspensions of ∼2 × 10^5 CFU/mL in Mueller-Hinton broth (Difco, Sparks MD, USA), with Mg^2+ and Ca^2+ concentrations of 4 mg/L each. The compounds were dissolved in H2O and diluted in 0.01% acetic acid, 0.2% BSA (final concentration). Aliquots of 11 µL of 10 × test compounds were then transferred to the appropriate wells with bacterial suspensions. For preparation and transfer of the solutions of the compounds, low-binding sterile tubes and tips (Axygen, Union City CA, USA) were used. After 20 h incubation of covered plates at 35 °C (±2 °C) with circular shaking at 220 rpm, the MICs were read. The antibacterial activity of peptidomimetics was tested against E. coli ATCC 25922, K. pneumoniae ATCC 13883, P. aeruginosa ATCC 27853, P. aeruginosa PAO1, A. baumannii ATCC 19606, S. aureus ATCC 29213, and E. faecalis ATCC 29212.

[4] = system: S. aureus ATCC 29213; format: cell-based; conditions: for MIC: ATCC 29213, 20 h
Procedure: as §1

[5] = system: A. baumannii ATCC 19606; format: cell-based; conditions: ATCC 19606, 20 h
Procedure: as §1

[6] = system: E. faecalis ATCC 29212; format: cell-based; conditions: for MIC: ATCC 29212, 20 h
Procedure: as §1

[7] = system: K. pneumoniae ATCC 13883; format: cell-based; conditions: ATCC 13883, 20 h
Procedure: as §1

[8] = system: E. coli ATCC 25922; format: cell-based; conditions: ATCC 25922, 20 h
Procedure: as §1

[9] = system: P. aeruginosa ATCC 27853; format: cell-based; conditions: ATCC 27853, 20 h
Procedure: as §1

[10] = in vitro; format: cell-based; conditions: human, Hemolytic Activity (percentage hemolysis)
Procedure: The lysis of human red blood cells was measured as previously described, with modifications. In brief, freshly drawn human red blood cells (hRBCs) were washed three times with PBS buffer and centrifuged two times for 5 min at 2500 rpm. A two-fold serial dilution of peptidomimetics in PBS buffer was added to each well in a sterile polypropylene V-bottom 96-well plate to the total volume of 75 μL. A 0.5% v/v hRBC suspension (75 μL in PBS buffer) was added to each well to reach a final volume of 150 μL in each well. The plate was incubated (37 °C) for 60 min, and then the cells were subsequently pelleted by centrifugation at 1000 rpm for 5 min. The supernatants (50 μL) were transferred to clear, flat-bottomed plastic 96-well plates. The concentration of hemoglobin was detected by measuring the OD at 405 nm. The OD of cells incubated with 0.1% SDS defined 100% hemolysis, while the OD of cells incubated with PBS buffer defined 0% hemolysis. The concentrations tested were 200, 400, and 800 μg/mL (only average values for the highest concentration are stated in Table 2).

SMILES	Hydrophobicity (% MeCN at elution) [1] [%]	IC50 for inhibiting growth of HepG2 cells [2] [µg/mL]	MIC [3] [µg/mL]	MIC [4] [µg/mL]	Activity against S. aureus (in words) [4]	MIC [5] [µg/mL]	MIC [6] [µg/mL]	Activity against E. faecalis (in words) ([6]; E. faecalis)	MIC [7] [µg/mL]	MIC [8] [µg/mL]	MIC [9] [µg/mL]	hemolysis at 60 min, 800 µg/mL [10] [%]
NCCNCC(=O)N[C@@H](CCc1ccccc1)C(=O)N(CCN)CC(=O)N[C@@H](CCc1ccccc1)C(=O)N(CCN)CC(=O)N[C@@H](CCc1ccccc1)C(=O)N(CCN)CC(=O)N[C@@H](CCc1ccccc1)C(=O)N(CCN)CC(=O)N[C@@H](CCc1ccccc1)C(=O)N(CCN)CC(=O)N[C@@H](CCc1ccccc1)C(N)=O [Peptidomimetic 5] (H-[Gly(N-2-aminoethyl)][hPhe][Gly(N-2-aminoethyl)][hPhe][Gly(N-2-aminoethyl)][hPhe][Gly(N-2-aminoethyl)][hPhe][Gly(N-2-aminoethyl)][hPhe][Gly(N-2-aminoethyl)][hPhe]-NH2)	43.5	307	16 (≈ 10.1 µM)	8 (≈ 5.05 µM)	moderate activity	>64	32 (≈ 20.2 µM)	weak activity	64 (≈ 40.4 µM)	4 (≈ 2.52 µM)	4 (≈ 2.52 µM)	–
NCCCNCC(=O)N[C@@H](CCc1ccccc1)C(=O)N(CCCN)CC(=O)N[C@@H](CCc1ccccc1)C(=O)N(CCCN)CC(=O)N[C@@H](CCc1ccccc1)C(=O)N(CCCN)CC(=O)N[C@@H](CCc1ccccc1)C(=O)N(CCCN)CC(=O)N[C@@H](CCc1ccccc1)C(=O)N(CCCN)CC(=O)N[C@@H](CCc1ccccc1)C(N)=O [Peptidomimetic 6] (H-[Gly(N(CH2)3NH2)][hPhe][Gly(N(CH2)3NH2)][hPhe][Gly(N(CH2)3NH2)][hPhe][Gly(N(CH2)3NH2)][hPhe][Gly(N(CH2)3NH2)][hPhe][Gly(N(CH2)3NH2)][hPhe]-NH2)	41.2	456	16 to 32	16 (≈ 9.59 µM)	moderate activity	>64	>64	–	>64	4 (≈ 2.4 µM)	8 (≈ 4.79 µM)	8
NCCCCNCC(=O)N[C@@H](CCc1ccccc1)C(=O)N(CCCCN)CC(=O)N[C@@H](CCc1ccccc1)C(=O)N(CCCCN)CC(=O)N[C@@H](CCc1ccccc1)C(=O)N(CCCCN)CC(=O)N[C@@H](CCc1ccccc1)C(=O)N(CCCCN)CC(=O)N[C@@H](CCc1ccccc1)C(=O)N(CCCCN)CC(=O)N[C@@H](CCc1ccccc1)C(N)=O [Peptidomimetic 7] (H-[Nlys][hPhe][Nlys][hPhe][Nlys][hPhe][Nlys][hPhe][Nlys][hPhe][Nlys][hPhe]-NH2)	40.6	720	32 to 64	>64	–	>64	>64	–	>64	2 to 4	32 (≈ 18.3 µM)	6
NCCC[C@H](NC(=O)CN(CCc1ccccc1)C(=O)[C@H](CCCN)NC(=O)CN(CCc1ccccc1)C(=O)[C@H](CCCN)NC(=O)CN(CCc1ccccc1)C(=O)[C@H](CCCN)NC(=O)CN(CCc1ccccc1)C(=O)[C@H](CCCN)NC(=O)CN(CCc1ccccc1)C(=O)[C@@H](N)CCCN)C(=O)N(CCc1ccccc1)CC(N)=O [Peptidomimetic 14] (H-[Orn][Gly(NCH2CH2Ph)][Orn][Gly(NCH2CH2Ph)][Orn][Gly(NCH2CH2Ph)][Orn][Gly(NCH2CH2Ph)][Orn][Gly(NCH2CH2Ph)][Orn][Gly(NCH2CH2Ph)]-NH2)	40.5	684	8 to 16	>64	–	>64	>64	–	32 (≈ 19.2 µM)	4 to 8	8 (≈ 4.79 µM)	11
NCCCC[C@H](NC(=O)CN(CCc1ccccc1)C(=O)[C@H](CCCCN)NC(=O)CN(CCc1ccccc1)C(=O)[C@H](CCCCN)NC(=O)CN(CCc1ccccc1)C(=O)[C@H](CCCCN)NC(=O)CN(CCc1ccccc1)C(=O)[C@H](CCCCN)NC(=O)CN(CCc1ccccc1)C(=O)[C@@H](N)CCCCN)C(=O)N(CCc1ccccc1)CC(N)=O [Peptidomimetic 15] (H-K[Gly(NCH2CH2Ph)]K[Gly(NCH2CH2Ph)]K[Gly(NCH2CH2Ph)]K[Gly(NCH2CH2Ph)]K[Gly(NCH2CH2Ph)]K[Gly(NCH2CH2Ph)]-NH2)	40.5	595	8 to 16	>64	–	64 (≈ 36.5 µM)	>64	–	>64	4 (≈ 2.28 µM)	16 (≈ 9.13 µM)	8
